# Assay results: PubChem BioAssay AID330 (DTP/NCI, 2004)
# Where “and” joins values, the source holds several entries; their conditions need not be identical. Equal values may be shown once. Toxic doses and inconclusive results are not listed.
# System: P388 leukemia ip, CD2F1 mice, survival T/C
# Assay: NCI In Vivo Anticancer Drug Screen. Data for tumor model P388 Leukemia (intraperitoneal) in CD2F1 (CDF1) mice
# Settings: endpoint: median survival time, higher = longer survival
# Method in brief: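 Mice carrying the transplanted tumor received test compound or vehicle. Survival was recorded in each group, and the value is the treated-group measurement divided by that of the vehicle-treated control group.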
# [1] = dose: 50.0 mg/kg/injection, schedule: Q01DX005 (ip), vehicle: Klucel (hydroxypropylcellulose) (HPC)
# [2] = dose: 100.0 mg/kg/injection, schedule: Q01DX005 (ip), vehicle: Klucel (hydroxypropylcellulose) (HPC)
# [3] = dose: 200.0 mg/kg/injection, schedule: Q01DX005 (ip), vehicle: Klucel (hydroxypropylcellulose) (HPC)
# [4] = dose: 25.0 mg/kg/injection, schedule: Q01DX005 (ip), vehicle: Klucel (hydroxypropylcellulose) (HPC)
# [5] = dose: 60.0 mg/kg/injection, schedule: Q01DX005 (ip), vehicle: saline
# [6] = dose: 120.0 mg/kg/injection, schedule: Q01DX005 (ip), vehicle: saline
# [7] = dose: 240.0 mg/kg/injection, schedule: Q01DX005 (ip), vehicle: saline
# [8] = dose: 100.0 mg/kg/injection, schedule: Q04DX002 (ip), vehicle: Klucel (hydroxypropylcellulose) (HPC)
# [9] = dose: 200.0 mg/kg/injection, schedule: Q04DX002 (ip), vehicle: Klucel (hydroxypropylcellulose) (HPC)
# [10] = dose: 15.0 mg/kg/injection, schedule: Q01DX005 (ip), vehicle: saline with Tween-80
# [11] = dose: 30.0 mg/kg/injection, schedule: Q01DX005 (ip), vehicle: saline with Tween-80
# [12] = dose: 60.0 mg/kg/injection, schedule: Q01DX005 (ip), vehicle: saline with Tween-80
# [13] = dose: 120.0 mg/kg/injection, schedule: Q01DX005 (ip), vehicle: saline with Tween-80
# [14] = dose: 240.0 mg/kg/injection, schedule: Q01DX005 (ip), vehicle: saline with Tween-80
# [15] = dose: 25.0 mg/kg/injection, schedule: Q01DX009 (ip), vehicle: saline with Tween-80
smiles,measurement,setting,value
COc1cccc(OC)c1C(=O)Nc1cccc(NC(=O)c2c(OC)cccc2OC)n1,T/C,"dose: 50.0 mg/kg/injection, schedule: Q01DX005 (ip), vehicle: saline with Tween-80",95 % of control
same,T/C,"dose: 100.0 mg/kg/injection, schedule: Q01DX005 (ip), vehicle: saline with Tween-80",93 % of control
same,T/C,"dose: 200.0 mg/kg/injection, schedule: Q01DX005 (ip), vehicle: saline with Tween-80",93 % of control
CCOC(=O)N1CCN(C(=O)c2nc3ccc(Cl)cc3[nH]2)CC1,T/C,[1],108 % of control
same,T/C,[2],87 % of control
same,T/C,[3],93 % of control
c1ccc2c(Nc3ccc4c(c3)OCO4)c3c(nc2c1)CCCC3,T/C,"dose: 12.5 mg/kg/injection, schedule: Q01DX005 (ip), vehicle: Klucel (hydroxypropylcellulose) (HPC)",102 % of control
same,T/C,[4],101 % of control
same,T/C,[1],100 % of control and 112 % of control
CC(=O)N/N=C(\C(=O)OC(=NC1CCCCC1)NC1CCCCC1)c1ccccc1,T/C,[1],87 % of control
same,T/C,[2],87 % of control
same,T/C,[3],91 % of control
CCOC(=O)C(C)(NC(=O)c1ccccc1)C(=O)OCC,T/C,[5],101 % of control and 105 % of control
same,T/C,[6],109 % of control
same,T/C,[7],100 % of control and 97 % of control
CCOC(=O)CC1(C)NC(=O)NC1=O (configuration not stated),T/C,"dose: 50.0 mg/kg/injection, schedule: Q04DX003 (ip), vehicle: Klucel (hydroxypropylcellulose) (HPC)",108 % of control
same,T/C,"dose: 100.0 mg/kg/injection, schedule: Q04DX003 (ip), vehicle: Klucel (hydroxypropylcellulose) (HPC)",100 % of control
same,T/C,"dose: 200.0 mg/kg/injection, schedule: Q04DX003 (ip), vehicle: Klucel (hydroxypropylcellulose) (HPC)",101 % of control
same,T/C,"dose: 400.0 mg/kg/injection, schedule: Q04DX003 (ip), vehicle: Klucel (hydroxypropylcellulose) (HPC)",100 % of control
Clc1ccc(C(Nc2nncs2)Nc2nncs2)c(Cl)c1,T/C,[8],109 % of control
same,T/C,[9],114 % of control
Nc1ncnc2nc(Br)[nH]c12,T/C,[1],111 % of control
same,T/C,[2],95 % of control
same,T/C,[3],106 % of control
CN(C)C(=O)CC/C=C/C1C=CCCN1Cc1ccccc1 (configuration not stated),T/C,"dose: 8.75 mg/kg/injection, schedule: Q01DX005 (ip), vehicle: Klucel (hydroxypropylcellulose) (HPC)",103 % of control
same,T/C,"dose: 17.5 mg/kg/injection, schedule: Q01DX005 (ip), vehicle: Klucel (hydroxypropylcellulose) (HPC)",100 % of control
same,T/C,"dose: 35.0 mg/kg/injection, schedule: Q01DX005 (ip), vehicle: Klucel (hydroxypropylcellulose) (HPC)",100 % of control
CC1(C(Cl)(Cl)Cl)C=C(Cl)C(=O)C(Cl)=C1,T/C,[4],99 % of control
same,T/C,[1],98 % of control and 92 % of control
same,T/C,[2],102 % of control
same,T/C,[3],92 % of control
CCOP(=O)(N=Nc1cccnc1)OCC,T/C,"dose: 1.56 mg/kg/injection, schedule: Q01DX009 (ip), vehicle: water",107 % of control
same,T/C,"dose: 3.12 mg/kg/injection, schedule: Q01DX009 (ip), vehicle: water",101 % of control
same,T/C,"dose: 6.25 mg/kg/injection, schedule: Q01DX005 (ip), vehicle: water",100 % of control
same,T/C,"dose: 6.25 mg/kg/injection, schedule: Q01DX009 (ip), vehicle: water",101 % of control
same,T/C,"dose: 12.5 mg/kg/injection, schedule: Q01DX005 (ip), vehicle: water",96 % of control
same,T/C,"dose: 12.5 mg/kg/injection, schedule: Q01DX009 (ip), vehicle: water",112 % of control
same,T/C,"dose: 25.0 mg/kg/injection, schedule: Q01DX005 (ip), vehicle: water",102 % of control
same,T/C,"dose: 25.0 mg/kg/injection, schedule: Q01DX009 (ip), vehicle: water",117 % of control
same,T/C,"dose: 50.0 mg/kg/injection, schedule: Q01DX005 (ip), vehicle: water",103 % of control
same,T/C,"dose: 100.0 mg/kg/injection, schedule: Q01DX005 (ip), vehicle: water",103 % of control
CCOP(=S)(Oc1cnn(C)c(=O)c1OC)OC(C)C (configuration not stated),T/C,"dose: 0.78 mg/kg/injection, schedule: Q01DX005 (ip), vehicle: saline with Tween-80",98 % of control
same,T/C,"dose: 1.56 mg/kg/injection, schedule: Q01DX005 (ip), vehicle: saline with Tween-80",100 % of control
same,T/C,"dose: 3.13 mg/kg/injection, schedule: Q01DX005 (ip), vehicle: saline with Tween-80",98 % of control
COc1nc(Cl)cn(C)c1=O,T/C,[10],101 % of control
same,T/C,[11],98 % of control
same,T/C,"dose: 60.0 mg/kg/injection, schedule: Q01DX005 (ip), vehicle: Klucel (hydroxypropylcellulose) (HPC)",95 % of control
same,T/C,[12],107 % of control
same,T/C,"dose: 120.0 mg/kg/injection, schedule: Q01DX005 (ip), vehicle: Klucel (hydroxypropylcellulose) (HPC)",106 % of control
O=C(O)c1ccccc1Cc1cccc2ccccc12,T/C,[8],91 % of control
same,T/C,[9],96 % of control
same,T/C,"dose: 400.0 mg/kg/injection, schedule: Q04DX002 (ip), vehicle: Klucel (hydroxypropylcellulose) (HPC)",99 % of control
CC(=O)C(C=O)C(C)=O.CC(=O)CC(C)=O.CC(=O)CC(C)=O.[Ru],T/C,[10],100 % of control
same,T/C,[11],102 % of control
same,T/C,[12],104 % of control and 109 % of control
COC1(OC)CC(CCl)OC1(OC)OC (configuration not stated),T/C,[5],103 % of control
same,T/C,[6],103 % of control
same,T/C,[7],101 % of control
O=C(C[P+](c1ccccc1)(c1ccccc1)c1ccccc1)c1ccccc1,T/C,[12],105 % of control
same,T/C,[13],108 % of control
same,T/C,[14],96 % of control
CC1(C)OC(=O)NC1c1ccccc1 (configuration not stated),T/C,"dose: 6.25 mg/kg/injection, schedule: Q01DX009 (ip), vehicle: saline with Tween-80",100 % of control
same,T/C,"dose: 12.5 mg/kg/injection, schedule: Q01DX009 (ip), vehicle: saline with Tween-80",99 % of control
same,T/C,[15],117 % of control
CCN(CC)CC.[CH-]1CCCCC1.[CH-]1CCCCC1.[CH3-].[Cl-].[I-].[Sn+4],T/C,"dose: 6.0 mg/kg/injection, schedule: Q01DX005 (ip), vehicle: saline with Tween-80",101 % of control
same,T/C,"dose: 12.0 mg/kg/injection, schedule: Q01DX005 (ip), vehicle: saline with Tween-80",102 % of control
Nc1nc(N)c2cc(CNc3ccc(C(=O)NC(CC(=O)O)C(=O)O)cc3)ccc2n1 (configuration not stated),T/C,"dose: 0.13 mg/kg/injection, schedule: Q04DX003 (ip), vehicle: saline with Tween-80",109 % of control
same,T/C,"dose: 0.25 mg/kg/injection, schedule: Q04DX003 (ip), vehicle: saline with Tween-80",113 % of control
same,T/C,"dose: 0.5 mg/kg/injection, schedule: Q01DX009 (ip), vehicle: saline",181 % of control
same,T/C,"dose: 1.0 mg/kg/injection, schedule: Q01DX009 (ip), vehicle: saline",200 % of control
same,T/C,"dose: 1.0 mg/kg/injection, schedule: Q04DX003 (ip), vehicle: saline with Tween-80",150 % of control
same,T/C,"dose: 1.56 mg/kg/injection, schedule: Q01DX009 (ip), vehicle: saline",222 % of control
same,T/C,"dose: 3.13 mg/kg/injection, schedule: Q01DX009 (ip), vehicle: saline",259 % of control
same,T/C,"dose: 6.25 mg/kg/injection, schedule: Q01DX009 (ip), vehicle: saline",90 % of control
CN(C)c1ccc(/C=N/NC(=O)CC2CCCCC2)cc1,T/C,[12],100 % of control
same,T/C,[13],108 % of control
same,T/C,[14],102 % of control
CCCCCC(CSCC)C(=O)/C=C/c1ccc(Cl)c(Cl)c1 (configuration not stated),T/C,"dose: 12.5 mg/kg/injection, schedule: Q01DX009 (ip), vehicle: distilled water + Tween-80",101 % of control
same,T/C,"dose: 25.0 mg/kg/injection, schedule: Q01DX009 (ip), vehicle: distilled water + Tween-80",105 % of control
same,T/C,"dose: 50.0 mg/kg/injection, schedule: Q01DX009 (ip), vehicle: distilled water + Tween-80",103 % of control and 104 % of control
same,T/C,"dose: 100.0 mg/kg/injection, schedule: Q01DX009 (ip), vehicle: distilled water + Tween-80",105 % of control and 109 % of control
same,T/C,"dose: 200.0 mg/kg/injection, schedule: Q01DX009 (ip), vehicle: distilled water + Tween-80",120 % of control and 124 % of control
same,T/C,"dose: 400.0 mg/kg/injection, schedule: Q01DX009 (ip), vehicle: distilled water + Tween-80",119 % of control
CN(C)CCC(=O)c1ccc([N+](=O)[O-])cc1,T/C,[15],94 % of control
same,T/C,"dose: 50.0 mg/kg/injection, schedule: Q01DX009 (ip), vehicle: saline with Tween-80",113 % of control
same,T/C,"dose: 100.0 mg/kg/injection, schedule: Q01DX009 (ip), vehicle: saline with Tween-80",108 % of control
same,T/C,"dose: 200.0 mg/kg/injection, schedule: Q01DX009 (ip), vehicle: saline with Tween-80",106 % of control
